The target of series [1] is human muscarinic receptor M1 (Homo sapiens, UniProt P11229). Description: cell-based. The protocol:
(§1) All cells used in the following experiments were clonal populations of Chinese Hamster Ovary (CHO) cells stably expressing the corresponding human muscarinic receptor, except for the M4 cell line, which was a population of CHO cells transiently transfected with the human M4 receptor. […] The procedure was as follows: • 1. Cells were thawed and cultured in cell culture medium (DMEM/F12 containing 10% FBS, 1× penicillin-streptomycin and 600 μg/ml hygromycin B) at 37° C. in 5% (v/v) CO2. • 2. One day before the assays, cells were detached using TrypLE™ and counted using a cell-counter. […] 12,000 cells/well were seeded in 30 μl/well culture medium in a 384-well cell plate and incubated overnight at 37C, 5% (v/v) CO2. • 4. On the assay day, 2× dye solution was prepared following the manual of the FLIPR® Calcium 6 Assay Kit: • i. The dye was diluted with assay buffer (20 mM HEPES in 1× HBSS, PH 7.4); • ii. Probenecid was added to a final concentration of 5 mM; • iii. […] were vortexed vigorously for 1-2 minutes. • 5. Medium was removed from the cell plate by flicking the cell plate on paper towels. • 6. 10 μl of assay buffer and 10 μl of 2× dye solution was added to each well of the cell plate. • 7. The cell plate was shaken on a plate shaker at 600 rpm for 2 minutes and incubated at 37° C. for 2 hours followed by an additional 15-minute incubation at 25° C. • 8. The test compounds were next prepared in assay buffer: • a. All compounds were diluted to the required concentration with DMSO and added to a 384-well compound plate; • b. All compounds were serially diluted; • 1. Starting with 10 mM concentration of each test compound, all samples were serially diluted in 3-fold dilutions. • 2. 90 nl/well of each compound was transferred from the source plate to a 384-well compound plate using an Echo liquid handler. • 3. 30 μl/well assay buffer was added to the compound plate; • c. The plates were mixed on a plate shaker for 2 mins; • 9. The cell plate, compound plate and pipette tips were placed in the FLIPR screening system and 10 μl of each compound was added to a well of the cell plate. • 10. Plates were read for 160 sec with 1 sec intervals to obtain the data in agonist mode, then kept at 25° C. in the dark for 30 min. • 11.

For series [2], the target named is human muscarinic receptor M3 (Homo sapiens, UniProt P20309). As to the kind of experiment: cell-based. As to the method: as §1
human muscarinic receptor M3, sequence (P20309 whole entry): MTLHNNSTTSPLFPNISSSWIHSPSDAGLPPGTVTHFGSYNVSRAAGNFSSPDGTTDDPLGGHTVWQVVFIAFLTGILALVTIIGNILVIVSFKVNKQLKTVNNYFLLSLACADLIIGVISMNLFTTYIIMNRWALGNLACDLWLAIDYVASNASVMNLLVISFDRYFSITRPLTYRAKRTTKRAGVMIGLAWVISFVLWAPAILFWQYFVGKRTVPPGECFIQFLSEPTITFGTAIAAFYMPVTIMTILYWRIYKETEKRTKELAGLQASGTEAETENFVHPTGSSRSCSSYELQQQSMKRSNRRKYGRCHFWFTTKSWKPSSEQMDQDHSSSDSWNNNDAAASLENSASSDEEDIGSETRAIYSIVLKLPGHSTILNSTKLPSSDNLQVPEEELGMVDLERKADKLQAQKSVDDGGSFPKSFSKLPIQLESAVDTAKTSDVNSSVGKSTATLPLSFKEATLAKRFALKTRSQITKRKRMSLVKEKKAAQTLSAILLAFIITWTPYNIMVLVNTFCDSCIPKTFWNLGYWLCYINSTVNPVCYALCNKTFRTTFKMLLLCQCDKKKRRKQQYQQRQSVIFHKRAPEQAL
Series [3] addresses T1, human muscarinic receptor M2 (Homo sapiens, UniProt P08172).
T1 construct: expressed in transfected cells
As to the kind of experiment: Calcium flux assay (FLIPR), CHO cells expressing human M2. In kind it is cell-based. The note with it: agonist mode. The protocol: (§2) All cells used in the following experiments were clonal populations of Chinese Hamster Ovary (CHO) cells stably expressing the corresponding human muscarinic receptor, except for the M4 cell line, which was a population of CHO cells transiently transfected with the human M4 receptor. Muscarinic agonism and antagonism of each receptor was measured by a quantitative calcium flux assay that is used for multiple classes of G-protein-coupled receptors, or GPCRs, as described elsewhere (e.g., Arkin et al., […], PMID: 22553878). Acetylcholine and atropine were used as positive controls for receptor agonism and antagonism, respectively. The procedure was as follows: • 1. Cells were thawed and cultured in cell culture medium (DMEM/F12 containing 10% FBS, 1× penicillin-streptomycin and 600 μg/ml hygromycin B) at 37° C. in 5% (v/v) CO2. • 2. One day before the assays, cells were detached using TrypLE™ and counted using a cell-counter. Only cells with >85% viability are used for the assay. • 3. […] Plates were read for 160 sec with 1 sec intervals to obtain the data in agonist mode, then kept at 25° C. in the dark for 30 min. • 11. […] Plates were read for 160 sec with 1 sec intervals, thereby measuring the ability for test compounds to antagonize the activation of muscarinic receptors by Ach.
Background: A change in cytosolic calcium serves as a functional read-out for many receptors and channels.

Series [4] deals with T2, human M4 receptor (Homo sapiens, UniProt P08173).
T2 construct: expressed in transfected cells; host or cells: CHO (transient transfection)
T2 sequence (P08173 whole entry): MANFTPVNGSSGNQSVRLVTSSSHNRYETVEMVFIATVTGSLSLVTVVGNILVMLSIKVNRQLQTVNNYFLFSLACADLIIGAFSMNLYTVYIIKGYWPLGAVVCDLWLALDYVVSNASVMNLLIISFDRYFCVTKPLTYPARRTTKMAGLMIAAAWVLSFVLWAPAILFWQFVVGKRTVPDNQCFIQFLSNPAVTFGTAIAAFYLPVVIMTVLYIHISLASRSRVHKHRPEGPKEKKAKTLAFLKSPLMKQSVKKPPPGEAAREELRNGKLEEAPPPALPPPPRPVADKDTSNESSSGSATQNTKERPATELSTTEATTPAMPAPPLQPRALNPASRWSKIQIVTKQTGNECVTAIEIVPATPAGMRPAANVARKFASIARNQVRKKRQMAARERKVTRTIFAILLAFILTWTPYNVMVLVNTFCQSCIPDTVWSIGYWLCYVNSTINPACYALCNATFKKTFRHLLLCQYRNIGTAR
As to the kind of experiment: Calcium flux assay (FLIPR), CHO cells transiently transfected with human M4. The class given is cell-based. The note with it: agonist mode. As to the method:
All cells used in the following experiments were clonal populations of Chinese Hamster Ovary (CHO) cells stably expressing the corresponding human muscarinic receptor, except for the M4 cell line, which was a population of CHO cells transiently transfected with the human M4 receptor. […] The procedure was as follows: • 1. Cells were thawed and cultured in cell culture medium (DMEM/F12 containing 10% FBS, 1× penicillin-streptomycin and 600 μg/ml hygromycin B) at 37° C. in 5% (v/v) CO2. • 2. One day before the assays, cells were detached using TrypLE™ and counted using a cell-counter. […] 12,000 cells/well were seeded in 30 μl/well culture medium in a 384-well cell plate and incubated overnight at 37C, 5% (v/v) CO2. • 4. On the assay day, 2× dye solution was prepared following the manual of the FLIPR® Calcium 6 Assay Kit: • i. The dye was diluted with assay buffer (20 mM HEPES in 1× HBSS, PH 7.4); • ii. Probenecid was added to a final concentration of 5 mM; • iii. Cells were vortexed vigorously for 1-2 minutes. • 5. Medium was removed from the cell plate by flicking the cell plate on paper towels. • 6. 10 μl of assay buffer and 10 μl of 2× dye solution was added to each well of the cell plate. • 7. […] Plates were read for 160 sec with 1 sec intervals to obtain the data in agonist mode, then kept at 25° C. in the dark for 30 min. • 11.

Series [5] deals with T3, human muscarinic receptor M5 (Homo sapiens, UniProt P08912).
T3 construct: expressed in transfected cells
T3 sequence (P08912 whole entry): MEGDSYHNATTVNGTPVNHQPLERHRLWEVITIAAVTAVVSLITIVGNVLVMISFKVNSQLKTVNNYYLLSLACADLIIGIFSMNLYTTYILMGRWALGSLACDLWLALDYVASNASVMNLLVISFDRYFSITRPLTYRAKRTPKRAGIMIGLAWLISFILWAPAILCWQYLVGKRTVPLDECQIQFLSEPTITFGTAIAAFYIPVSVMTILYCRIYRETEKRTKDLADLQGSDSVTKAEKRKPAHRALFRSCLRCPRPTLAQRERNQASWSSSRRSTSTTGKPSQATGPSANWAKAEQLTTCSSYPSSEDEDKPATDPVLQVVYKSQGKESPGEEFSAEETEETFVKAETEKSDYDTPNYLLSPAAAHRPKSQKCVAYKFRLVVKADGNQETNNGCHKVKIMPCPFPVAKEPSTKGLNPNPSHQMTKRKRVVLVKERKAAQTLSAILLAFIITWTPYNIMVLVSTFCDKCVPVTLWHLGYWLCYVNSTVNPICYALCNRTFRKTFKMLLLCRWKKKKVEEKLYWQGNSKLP
Description: Calcium flux assay (FLIPR), CHO cells expressing human M5. The class given is cell-based. The following applies: agonist mode. The protocol:
as §2

Series [6] deals with Cerep87 Safety Panel receptors. Description: Cerep87 Safety Panel (Eurofins), whole panel statements. The class given is binding. The note with it: all receptors of the Cerep87 panel.
In series [7] the test system is tear production. Description: THP-induced dry eye in dogs: tear production. In kind it is in vivo, Beagles. The note with it: oral, 2 mpk alone, 4 hours post administration.
Series [8] deals with dizziness. The note with it: humans; 3 mg THP immediate release at 0, 2, 4 hours versus 9 mg at once. As to the method:
Experimental Design: All of the data collected in this example were run in a double-blind, randomized, placebo controlled setting of normal healthy adults. […] Dizziness was measured by the visual analog scale (VAS), a common clinical measure of dizziness.

T1 sequence (P08172 whole entry): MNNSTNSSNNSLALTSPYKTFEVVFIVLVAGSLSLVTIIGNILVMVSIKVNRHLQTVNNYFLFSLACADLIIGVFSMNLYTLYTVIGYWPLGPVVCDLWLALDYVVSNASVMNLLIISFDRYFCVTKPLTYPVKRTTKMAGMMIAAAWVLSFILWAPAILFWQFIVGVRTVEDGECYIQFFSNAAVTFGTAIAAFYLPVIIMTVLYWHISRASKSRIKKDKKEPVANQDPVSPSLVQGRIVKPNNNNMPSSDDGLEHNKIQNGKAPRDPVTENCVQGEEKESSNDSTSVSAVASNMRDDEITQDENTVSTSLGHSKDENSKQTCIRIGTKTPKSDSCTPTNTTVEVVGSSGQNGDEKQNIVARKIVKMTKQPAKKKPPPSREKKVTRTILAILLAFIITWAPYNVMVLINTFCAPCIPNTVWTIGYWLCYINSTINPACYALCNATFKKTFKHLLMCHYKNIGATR
human muscarinic receptor M1, sequence (P11229 whole entry): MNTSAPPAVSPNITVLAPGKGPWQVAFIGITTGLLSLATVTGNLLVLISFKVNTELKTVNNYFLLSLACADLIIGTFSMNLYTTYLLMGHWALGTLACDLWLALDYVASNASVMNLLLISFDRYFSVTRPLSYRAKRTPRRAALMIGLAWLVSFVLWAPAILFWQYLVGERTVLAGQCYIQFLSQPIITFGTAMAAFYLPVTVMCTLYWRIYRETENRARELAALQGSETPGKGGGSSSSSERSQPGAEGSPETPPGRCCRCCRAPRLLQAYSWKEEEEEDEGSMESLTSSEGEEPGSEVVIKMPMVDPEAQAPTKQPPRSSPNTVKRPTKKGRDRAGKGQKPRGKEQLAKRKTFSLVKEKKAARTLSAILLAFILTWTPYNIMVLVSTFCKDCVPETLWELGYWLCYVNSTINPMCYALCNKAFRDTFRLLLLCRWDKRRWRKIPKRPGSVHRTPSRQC

The EC50 is the midpoint of the concentration-response curve. For the compound `C[C@H](C[N+](C)(C)C)OC(N)=O.[Cl-]` [(R)-BTC, (R)-bethanechol, reference compound], the EC50 is over 10 µM in series [1]; 7.57 µM in series [2]; over 10 µM in series [3]; over 10 µM in series [4]; over 10 µM in series [5]. Further, the “signal at any receptor of the panel” value in series [6] is listed as under 50%.
For `OC(CCN1CCCCC1)(c1ccccc1)C1CCCCC1` (centres unmarked) [THP, trihexyphenidyl], in series [7], the “% Baseline tear production” value was 89.1%. Further, the “dizziness (VAS)” value in series [8] is listed as “significantly reduced dizziness”.

These data come from US12290513B2, “Therapeutic methods and compositions for treating movement disorders” (Vima Therapeutics, Inc., priority 2023, dated 2025).
